PubChem BioAssay (NCI)
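How tested: cells in 96-well plates exposed to compound for 48 hours at five concentrations. Abbreviation: GI50, concentration required for 50% inhibition of growth. TGI: concentration producing complete growth inhibition.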

Columns and labels:
Assay in all cases: growth of human tumour cells (NCI), 48 h
[1] = tested on: OVCAR-8 ovarian
[2] = tested on: K-562 leukemia
[3] = tested on: SF-539 CNS
[4] = tested on: COLO 205 colon
[5] = tested on: HL-60(TB) leukemia
[6] = tested on: SNB-19 CNS
[7] = tested on: A498 renal
[8] = tested on: MCF7 breast
[9] = tested on: PC-3 prostate
[10] = tested on: SK-MEL-5 melanoma
[11] = tested on: HOP-62 NSCLC
[12] = tested on: HOP-92 NSCLC
[13] = tested on: SN12C renal
[14] = tested on: CAKI-1 renal
[15] = tested on: 786-0 renal
[16] = tested on: M14 melanoma
[17] = tested on: MALME-3M melanoma
[18] = tested on: HCT-116 colon
[19] = tested on: SK-MEL-28 melanoma
[20] = tested on: SK-OV-3 ovarian
[21] = tested on: MDA-MB-435
[22] = tested on: ACHN renal
[23] = tested on: EKVX NSCLC
[24] = tested on: OVCAR-4 ovarian
[25] = tested on: HT29 colon
[26] = tested on: OVCAR-5 ovarian
[27] = tested on: NCI-H226 lung
[28] = tested on: RXF 393 renal
[29] = tested on: UO-31 renal
[30] = tested on: UACC-257 melanoma
[31] = tested on: LOX IMVI melanoma
[32] = tested on: CCRF-CEM leukemia
[33] = tested on: IGROV1 ovarian
[34] = tested on: SW-620 colon
[35] = tested on: T-47D breast
[36] = tested on: U251 CNS
[37] = tested on: NCI/ADR-RES ovarian
[38] = tested on: NCI-H23 lung
[39] = tested on: BT-549 breast
[40] = tested on: RPMI-8226 leukemia
[41] = tested on: SK-MEL-2 melanoma
[42] = tested on: TK-10 renal
[43] = tested on: MDA-MB-231 breast
[44] = tested on: OVCAR-3 ovarian
[45] = tested on: HS 578T breast
[46] = tested on: NCI-H460 lung
[47] = tested on: SF-295 CNS
[48] = tested on: KM12 colon
[49] = tested on: DU-145 prostate
[50] = tested on: UACC-62 melanoma
[51] = tested on: A549 NSCLC
[52] = tested on: HCT-15 colon
[53] = tested on: MOLT-4 leukemia
[54] = tested on: NCI-H522 lung
[55] = tested on: SR leukemia
[56] = tested on: SF-268 CNS
[57] = tested on: SNB-75 CNS
[58] = tested on: HCC-2998 colon

COc1ccc2c(c1)c(/C=N/Nc1ccnc3cc(Cl)ccc13)cn2C
GI50 [1]: 202 nM
TGI [1]: 440 nM
GI50 [2]: 193 nM
TGI [2]: 382 nM
GI50 [3]: 612 nM
TGI [3]: 1250 nM
GI50 [4]: 578 nM
TGI [4]: 1800 nM
GI50 [5]: 231 nM
TGI [5]: 533 nM
GI50 [6]: 648 nM
TGI [6]: 2090 nM
GI50 [7]: 1830 nM
TGI [7]: 3.47 µM
GI50 [8]: 164 nM
TGI [8]: 327 nM
GI50 [9]: 517 nM
TGI [9]: 1290 nM
GI50 [10]: 1640 nM
TGI [10]: 3.18 µM
GI50 [11]: 1450 nM
TGI [11]: 3.3 µM
GI50 [12]: 823 nM
TGI [12]: 2490 nM
GI50 [13]: 439 nM
TGI [13]: 961 nM
GI50 [14]: 1490 nM
TGI [14]: 2890 nM
GI50 [15]: 175 nM
TGI [15]: 317 nM
GI50 [16]: 992 nM
TGI [16]: 2600 nM
GI50 [17]: 1470 nM
TGI [17]: 3.27 µM
GI50 [18]: 176 nM
TGI [18]: 324 nM
GI50 [19]: 1840 nM
TGI [19]: 3.46 µM
GI50 [20]: 1570 nM
TGI [20]: 3.14 µM
GI50 [21]: 186 nM
TGI [21]: 354 nM
GI50 [22]: 683 nM
TGI [22]: 1560 nM
GI50 [23]: 1510 nM
TGI [23]: 3.19 µM
GI50 [24]: 681 nM
TGI [24]: 1700 nM
GI50 [25]: 176 nM
TGI [25]: 325 nM
GI50 [26]: 609 nM
TGI [26]: 1190 nM
GI50 [27]: 1820 nM
TGI [27]: 4.31 µM
GI50 [28]: 1260 nM
TGI [28]: 2900 nM
GI50 [29]: 1390 nM
TGI [29]: 2850 nM
GI50 [30]: 1780 nM
TGI [30]: 3.66 µM
GI50 [31]: 183 nM
TGI [31]: 352 nM
GI50 [32]: 234 nM
TGI [32]: 589 nM
GI50 [33]: 176 nM
TGI [33]: 345 nM
GI50 [34]: 185 nM
TGI [34]: 360 nM
GI50 [35]: 227 nM
TGI [35]: 599 nM
GI50 [36]: 173 nM
TGI [36]: 322 nM
GI50 [37]: 600 nM
TGI [37]: 1480 nM
GI50 [38]: 214 nM
TGI [38]: 556 nM
GI50 [39]: 1890 nM
TGI [39]: 3.54 µM
GI50 [40]: 233 nM
TGI [40]: 565 nM
GI50 [41]: 1700 nM
TGI [41]: 3.28 µM
GI50 [42]: 1240 nM
TGI [42]: 2780 nM
GI50 [43]: 203 nM
TGI [43]: 444 nM
GI50 [44]: 1180 nM
TGI [44]: 2440 nM
GI50 [45]: 1810 nM
TGI [45]: 3.88 µM
GI50 [46]: 193 nM
TGI [46]: 357 nM
GI50 [47]: 1110 nM
TGI [47]: 3.15 µM
GI50 [48]: 194 nM
TGI [48]: 384 nM
GI50 [49]: 192 nM
TGI [49]: 349 nM
GI50 [50]: 1730 nM
TGI [50]: 3.52 µM
GI50 [51]: 181 nM
TGI [51]: 347 nM
GI50 [52]: 200 nM
TGI [52]: 410 nM
GI50 [53]: 215 nM
TGI [53]: 478 nM
GI50 [54]: 563 nM
TGI [54]: 1280 nM
GI50 [55]: 143 nM
TGI [55]: 521 nM
GI50 [56]: 1660 nM
TGI [56]: 3.46 µM
GI50 [57]: 1320 nM
TGI [57]: 2800 nM
GI50 [58]: 369 nM
TGI [58]: 1190 nM
